Measured values: patent publication US20170096492A1, “DOSAGE AND ADMINISTRATION OF ANTI-IGF-1R, ANTI-ErbB3 BISPECIFIC ANTIBODIES, USES THEREOF AND METHODS OF TREATMENT [sequence]” (Merrimack Pharmaceuticals, Inc., priority 2014, published 2017)
Entries after “also recorded” stand apart in the source; their conditions may differ.

Key:
[1] = tested on: ovarian cancer cell lines (PEA1, PEA2, OvCAR8); experiment: Growth-factor-induced proliferation, 3D in vitro assays (CTG); type: cell-based
[2] = tested on: CFPAC-1 pancreatic cancer cells; experiment: Receptor ubiquitination, immunoprecipitation and immunoblotting; type: cell-based, human; conditions: 500 nM MM-141 20 minutes after 2 hours 1 μM epoxomicin
Source text: Cell lysates were immunoprecipitated (IP) with an IGF-1R (FIG. 33C) or ErbB3 (FIG. 33D) antibody, and then immunoblotted (IB) for IGF-1R, ErbB3, or ubiquitin protein (Ub) expression by western blotting.

[3] = tested on: BxPC-3 (KRAS wild type) pancreatic cancer cells; experiment: CTG cell viability, gemcitabine or paclitaxel with IGF-1 and HRG, two-dimensional cultures; type: cell-based, human; conditions: IGF-1 50 nM and HRG 10 nM, 2% serum, MM-141 500 nM
Procedure: The cell viability assay (FIGS. 7A-B and 8A-B) was carried out using a CellTiter-Glo® (CTG) assay (Promega), which determines the number of viable cells in a culture based on quantitation of the ATP present. In FIGS. 7A-B, BxPC-3 cells were grown in low serum alone or with exogenous IGF-1 or HRG added (0-50 nM). […] For the cell viability assays described in FIGS. 8(A-B), (FIG. 8A) BxPC-3 and (FIG. 8B) CFPAC-1 cells were cultured in low (2%) serum alone or with a combination of IGF-1 (50 nM) and HRG (10 nM).

[4] = tested on: CFPAC-1 pancreatic cancer cells; experiment: pAKT (Ser473) ELISA after chemotherapy and ligand stimulation; type: cell-based, human; conditions: 24 hours
Procedure: (§1) CFPAC-1 pancreatic cancer cells were seeded at 65% confluence in 10% serum-containing medium on 96-well plates overnight. […] Following incubation, cells were treated with (FIG. 24A) HRG (5 nM) or (FIG. 24B) IGF-1 (50 nM) for 15 minutes, where indicated. After treatment, cells were harvested and protein lysates generated. Changes in pAKT (Ser473) levels across all treatments were evaluated by pAKT ELISA, respectively. FIGS. 24(A-B) are bar graphs showing pAKT levels relative to ligand alone stimulated signals, which were normalized to 1.
as §1, with “25A)” for “24A)”, “25B)” for “24B)”, “25(A-B)” for “24(A-B)”

[5] = tested on: patients with solid tumors; experiment: Phase 1 dose escalation study, MM-141 monotherapy (Arm A): safety and disease response; type: in vivo, human
Source text: Adverse events that were reported with a frequency>15% included: vomiting (7/15), nausea (6/15), fatigue (4/15), abdominal pain (4/15), increased AP (4/15), dyspnea (4/15), diarrhea (3/15), anemia (3/15), increased AST (3/15), and rash (3/15). […] The safety, tolerability, PK and PD profiles support weekly and biweekly MM-141 dosing.

[6] = tested on: IGF-1R and ErbB3 receptors; experiment: Receptor expression ELISA versus monospecific antibodies (Example 31); type: cell-based; conditions: 50 nM, four hours post-treatment, compared with monospecific antibodies
Procedure: Cell lysates were harvested four hours post-treatment with antibodies as indicated in FIGS. 33A and 33B (50 nM of each antibody) and changes in receptor expression were measured by ELISA. All ELISA measurements are normalized to vehicle (PBS) treatment, and these measurements are expressed relative to a vehicle treated control value of 1.

[7] = tested on: BxPC-3 cell line xenografts; experiment: BxPC-3 xenograft efficacy study; type: in vivo, mice
Procedure: For the efficacy studies (FIGS. 6C and 9C), nu/nu female mice were inoculated with 8×10^6 DU145 cells and 5×10^6 BxPC-3 cells, respectively. […] Tumor volume was measured weekly as described in Example 4.

[8] = tested on: total IGF-1 in serum; experiment: Phase 1 PD analysis of total IGF-1 in serum (Quantikine ELISA); type: in vivo, human
Procedure: Serum for PK and PD analysis was prepared by drawing whole blood into red top tubes, clotting 30 minutes at 4-8° C. and spinning down in a refrigerated centrifuge. Serum was aliquotted and frozen immediately after centrifugation. PD analysis of total IGF-1 in serum was performed using Human IGF-I Quantikine® ELISA Kit (R&D Systems, Minneapolis, Minn.) according to the manufacturer's instructions. For the PK analysis, in brief, ELISA plates were plates were coated with IGF-1R (R&D Systems) in PBS and incubated overnight at 4° C. Plates were washed, blocked, and then samples and standards were added to plates and incubated for 2 hr at room temperature. Plates were washed and ErbB3-His was added for 1 hr at room temperature. Plates were washed and anti-His-HRP (Abeam, Cambridge, Mass.) was added for 1 hr at room temperature. Plates were developed using TMB and STOP solution and absorbance was read at 450 nm. PK parameters were analyzed using descriptive statistics including the median, mean and 95% confidence intervals around parameter estimates by dose level. All PK parameters included Cmax, Tmax, AUC (area under the concentration curve), clearance, volume of distribution at steady state (Vdss), and the terminal elimination half-life. Estimation of the PK parameters was performed using standard non-compartmental methods.

[9] = tested on: CAKI-1 xenografts; experiment: CAKI-1 xenograft PD, western blot; type: in vivo, mice
Procedure: For the PD study results shown in FIGS. 3A-B and FIGS. 5A-C, NOD/SCID female mice were inoculated with 12×10^6 CAKI-1 or 10×10^6 SK-ES-1 cells, respectively, in 1:1 Matrigel® suspension. […] Tumors were harvested 24 hours after the second dose of drug; lysates were generated and subjected to western blot analysis.

[10] = patients with event / 15 patients dosed, all dose levels
[11] = single agent, MM-141 30 mpk i.p. or everolimus 10 mpk orally, 2 doses, tumors harvested 24 hours after second dose

decrease of ErbB3 expression level [6]: to a greater extent
decrease of IGF-1R expression level [6]: to a greater extent
Substance: MM-141: polyvalent bispecific antibody P4-G1-M1.3, anti-IGF-1R and anti-ErbB3; heavy chain SEQ ID NO: 3, light chain SEQ ID NO: 4
IGF-1 and HRG growth-factor-induced proliferation [1]: blocks
IGF-1R and ErbB3 receptor ubiquitination [2]: induction of ubiquitination; also recorded: enhanced receptor ubiquitination
resistance to cytotoxic effect of gemcitabine and paclitaxel caused by combination of IGF-1 and HRG [3]: resistance was reversed
gemcitabine-induced increased sensitivity to HRG and IGF-1, pAKT (Ser473) ([4]; MM-141 500 nM with gemcitabine 1 μM): this effect is blocked
paclitaxel-induced increased sensitivity to IGF-1, pAKT (Ser473) ([4]; MM-141 500 nM with paclitaxel 100 nM): this effect is blocked
dose-limiting toxicities ([5]; monotherapy 6, 12, 20 mg/kg q7d or 40 mg/kg q14d, 15 patients): No dose-limiting toxicities were observed; also recorded: No DLTs were observed
disease stabilization ([5]; patients with Ewing's Sarcoma (1) and parotid gland carcinoma (1)): Disease stabilization was observed
adverse events reported with a frequency>15%: abdominal pain [5, 10]: 4/15
adverse events reported with a frequency>15%: anemia [5, 10]: 3/15
adverse events reported with a frequency>15%: diarrhea [5, 10]: 3/15
adverse events reported with a frequency>15%: dyspnea [5, 10]: 4/15
adverse events reported with a frequency>15%: fatigue [5, 10]: 4/15
adverse events reported with a frequency>15%: increased AP [5, 10]: 4/15
adverse events reported with a frequency>15%: increased AST [5, 10]: 3/15
adverse events reported with a frequency>15%: nausea [5, 10]: 6/15
adverse events reported with a frequency>15%: rash [5, 10]: 3/15
adverse events reported with a frequency>15%: vomiting [5, 10]: 7/15
tumor growth after development of resistance to gemcitabine ([7]; MM-141 30 mpk i.p. q3d added to the gemcitabine regimen on day 41): decreased tumor growth
activity of gemcitabine in the combination arm ([7]; MM-141 30 mpk i.p. q3d co-administered with gemcitabine 150 mpk i.p. q6d): increased the activity of gemcitabine
therapeutic synergy with gemcitabine ([7]; MM-141 30 mpk i.p. q3d with gemcitabine 150 mpk i.p. q6d): therapeutic synergy
increase in serum total IGF-1 ([8]; 6 mg/kg cohort): approximately two-fold in 1/3 patient samples
increase in serum total IGF-1 ([8]; 12 mg/kg cohort): approximately two-fold in 1/3 patient samples
increase in serum total IGF-1 ([8]; 20 mg/kg, all patient samples): approximately a two-fold increase
increase in serum total IGF-1 ([8]; 40 mg/kg, all patient samples): approximately two to four fold increases
everolimus-induced upregulation of IGF-1R and ErbB2 (resistance mechanism) ([9]; MM-141 30 mpk i.p. co-administered with everolimus 10 mpk orally): resistance mechanism was inhibited
total ErbB2 [9, 11]: down regulation
total IGF-1R [9, 11]: down regulation
